For orientation: IC50 means the concentration needed to halve the response being measured.

The structures appear in SMILES notation.

The assay has as its target T1, Full length (FL) 3-Phosphoglycerate Dehydrogenase (PHGDH) (Homo sapiens, UniProt O43175).
T1 construct: Full length (FL) 3-Phosphoglycerate Dehydrogenase (PHGDH) Diaphorase coupled assay (500 uM NAD)
T1 sequence (O43175 1-533): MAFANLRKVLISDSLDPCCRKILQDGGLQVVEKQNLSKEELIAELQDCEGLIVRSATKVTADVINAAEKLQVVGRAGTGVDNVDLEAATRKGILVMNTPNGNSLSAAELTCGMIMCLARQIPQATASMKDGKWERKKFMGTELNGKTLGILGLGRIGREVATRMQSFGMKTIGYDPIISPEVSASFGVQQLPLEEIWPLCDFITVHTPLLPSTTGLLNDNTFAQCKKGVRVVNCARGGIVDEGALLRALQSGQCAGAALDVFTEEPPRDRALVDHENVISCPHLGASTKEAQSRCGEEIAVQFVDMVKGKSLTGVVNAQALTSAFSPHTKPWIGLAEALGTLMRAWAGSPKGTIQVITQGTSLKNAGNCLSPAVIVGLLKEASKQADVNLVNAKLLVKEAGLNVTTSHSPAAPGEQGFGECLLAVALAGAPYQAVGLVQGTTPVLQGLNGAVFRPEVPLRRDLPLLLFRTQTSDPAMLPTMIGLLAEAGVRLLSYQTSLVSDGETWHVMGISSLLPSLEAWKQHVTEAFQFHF
As to the kind of experiment: Full length (FL) PHGDH Diaphorase coupled assay (500 uM NAD). Format: biochemical. The conditions noted are these: full-length PHGDH 5 nM, 30° C. 60 minutes, resorufin fluorescence. How it is done: Full length (FL) 3-Phosphoglycerate Dehydrogenase (PHGDH) Diaphorase coupled assay (500 uM NAD)
PHGDH activity was determined by detecting the NADH produced during the reaction. Diaphorase was used to catalyze the oxidation of NADH with the concomitant reduction of resazurin to the fluorescent product resorufin. Resorufin fluorescence quantitatively reflected the production of NADH by the PHGDH reaction. To drive the forward reaction, two enzymes in the serine synthesis pathway subsequent to PHGDH, Phosphoserine aminotransferase (PSAT1) and phosphoserine phosphatase (PSPH) were also added to the reaction.
Briefly, serial dilution of compounds were incubated in a volume of 20 μL in 384 well plates with the assay mixture containing 5 nM PHGDH, 500 nM PSAT1, 500 nM PSPH, 500 μM NAD^+, 80 uM 3-phosphoglycerate, 1 mM glutamate, 57 uM Resazurin and 0.2 mg/ml Diaphorase in assay buffer containing 50 mM Trisethanoloamine (TEA) pH8.0, 10 mM MgCl2, 0.01% Tween-20 and 0.05% Bovine Serum Albumin (BSA). The plate was then incubated at 30° C. for 60 minutes and resorufin fluorescence was measured at emission wavelength 598 nm following excitation at 525 nm. The positive control consisted of the complete reaction mixture with 4% DMSO and was set to 0% inhibition.

For `CC(C)CC(C(=O)O)c1ccc(C2(NC(=O)c3cc4c(Cl)c(Cl)ccc4n3C)COC2)cc1` (racemic) [I-9 e137, (±)-2-(4-(3-(4,5-Dichloro-1-methyl-1H-indole-2-carboxamido)oxetan-3-yl)phenyl)-4-methylpentanoic acid], the 50% inhibitory concentration (IC50) lay in the range of 0.001 to 1 µM.

For `COc1ccc2c(cc(C(=O)NC3(c4ccc(C(C(=O)O)C5CCCCC5)cc4)COC3)n2C)c1Cl` (racemic) [I-156 e119], the concentration for half-maximal inhibition (IC50) lay within 0.001 to 1 µM. `Cn1c(C(=O)NC2(c3ccc(C(=O)O)cc3)CCOC2)cc2c(Cl)c(Cl)c(OCC3COC3)cc21` (racemic) [I-80 e103] had an IC50 of 0.001 to 1 µM. The molecule `Cn1c(C(=O)NC2(c3ccc(C4(C(=O)O)CCOC4)cc3)COC2)cc2c(Cl)c(Cl)ccc21` (racemic) [I-2 e125] registered an IC50 of 0.001 to 1 µM. With `COc1ccc2c(cc(C(=O)NC3(c4ccc(C5(C(=O)O)CC5)cc4)CCOC3)n2C)c1Cl` (racemic) [I-58 e70] the figure was 0.001 to 1 µM; with `COc1cc2c(cc(C(=O)NC3(c4ccc(C(=O)O)cc4C)COC3)n2C)c(Cl)c1C` [I-45 e74], 0.001 to 1 µM; with `COc1ccc2c(cc(C(=O)NC3(c4ccc(CC(=O)O)cc4)CCOC3)n2C)c1Cl` (racemic) [I-78 e40], 0.001 to 1 µM. Take `Cn1c(C(=O)NC2(c3ccc(C(=O)O)nc3)CCOC2)cc2c(Cl)c(Cl)ccc21` (racemic) [I-73 e28]: the IC50 lay in the range of 1 to 5 µM.

With `CCC(C(=O)O)c1ccc(C2(NC(=O)c3cc4c(Cl)c(Cl)c(OC)cc4n3C)COC2)cc1` (racemic) [I-14 e113], the IC50 is 0.001 to 1 µM. With `Cn1c(C(=O)NC2(c3ccc(CC(=O)O)cc3C#N)CCOC2)cc2c(Cl)c(Cl)ccc21` (racemic) [I-71 e158, (±)-2-[3-Cyano-4-[3-[(4,5-dichloro-1-methyl-indole-2-carbonyl)amino]tetrahydro-furan-3-yl]phenyl]acetic acid] the figure was 1 to 5 µM. Take `COc1cc2c(cc(C(=O)NC3(c4ccc(C(C(=O)O)C5CCCC5)cc4)COC3)n2C)c(Cl)c1Cl` (racemic) [I-22 e118]: the 50% inhibitory concentration (IC50) was in the range of 0.001 to 1 µM. Molecule `COc1cc2c(cc(C(=O)NC3(c4ccc(C(=O)O)cc4)CCOC3)n2C)c(Cl)c1Cl` (racemic) [I-115 e33] had an IC50 of 0.001 to 1 µM. `Cn1c(C(=O)NC2(c3ccc(C(=O)O)cc3)CCOC2)cc2c(Cl)c(Cl)c(OCC3CNC(=O)O3)cc21` (racemic) [I-111 e95] registered an IC50 of 0.001 to 1 µM. With `COc1cc2c(cc(C(=O)NC3(c4ccc(C(CC5CC5)C(=O)O)cc4)COC3)n2C)c(Cl)c1Cl` (racemic) [I-4 e123] the figure was 0.001 to 1 µM.

In turn, `COc1cc2c(cc(C(=O)NC3(c4ccc(C(C)C(=O)O)cc4)COC3)n2C)c(Cl)c1Cl` (stereo not drawn) [I-48 e71] displayed a half-maximal inhibitory concentration (IC50) of 0.001 to 1 µM.

As for `COc1ccc2c(cc(C(=O)NC3(c4ccc(C(C(=O)O)C5CCC(O)CC5)cc4)COC3)n2C)c1Cl` (racemic) [I-160 e138, (±)-2-[4-[3-[(4-Chloro-5-methoxy-1-methyl-indole-2-carbonyl)amino]oxetan-3-yl]phenyl]-2-(4-hydroxycyclohexyl)acetic acid], the half-inhibitory concentration (IC50) was in the range of 0.001 to 1 µM. As for `CCc1cc(C2(NC(=O)c3cc4c(Cl)c(Cl)ccc4n3C)CCOC2)ccc1C(=O)O` (racemic) [I-88 e156, (±)-4-[3-[(4,5-Dichloro-1-methyl-indole-2-carbonyl)amino]tetrahydro-furan-3-yl]-2-ethyl-benzoic acid], the IC50 was 1 to 5 µM. With `CC(C(=O)O)c1ccc(C2(NC(=O)c3cc4c(Cl)c(Cl)ccc4n3C)CCOC2)c(F)c1` (racemic) [I-57 e53] the figure was 0.001 to 1 µM; with `CCCC(C(=O)O)c1ccc(C2(NC(=O)c3cc4c(Cl)c(Cl)c(OC)cc4n3C)CCOC2)cc1` (racemic) [I-17 e85], 0.001 to 1 µM. With `Cn1c(C(=O)NC2(c3ccc(C(=O)O)cc3)CCOC2)cc2c(Cl)c(C3CC3)ccc21` (racemic) [I-96 e36], the IC50 lay within 0.001 to 1 µM. As to `Cn1c(C(=O)NC2(c3ccc(CC(=O)O)cc3F)COC2)cc2c(Cl)c(Cl)ccc21` [I-90 e43], the 50% inhibitory concentration (IC50) fell in the range of 0.001 to 1 µM.

Values taken from patent publication US11634412B2, “3-phosphoglycerate dehydrogenase inhibitors and uses thereof” (Raze Therapeutics, Inc., priority 2016, dated 2023).
